The text below walks through data of patent US20130123358A1, “Metabolic Benefits to Butyrate as a Chronic Diet Supplement” (priority 2009, published 2013).

The subject of series [1] is C57BL/6J mice on high fat diet. In words: Body temperature in cold response (4° C.). As to conditions: butyrate 5% w/w in HFD 10 weeks, ambient 4° C. It counts as in vivo, mouse. Here is the method: Body temperature was measured in the cold room with ambient temperature at 4° C. Animals were sedated and restrained for less than 30 sec in the measurement. A Thermalert model TH-8 temperature monitor (Physitemp, Clifton, N.J.) was used with probe placed in the rectum at 2.5 cm in depth.
The association of increased food intake with elevated energy expenditure implicated a role of brown adipose tissue, which is responsible for adaptive thermogenesis in response to diet or cold (20-22). Diet-induced thermogenesis reduces obesity in both humans and animals (23). […] To determine the thermogenic function, a cold-response experiment was conducted by exposing the mice to a cold environment with an ambient temperature of 4° C. for 90 min. The mice had been on HFD for 10 weeks. The body core temperature was monitored three times during exposure by measuring the rectal temperature. In the control mice, the body temperature decreased with time and was 34.5° C. after 90 min in the cold (FIG. 4A). In the butyrate-treated mice, the body temperature dropped to 35° C. transiently at 30 minutes, and then returned to 36° C. for the rest of time.

Series [2] concerns L6 muscle cells. Nature of the series: Immunoblot of L6 myotubes. Format: cell-based. As to conditions: 500 μM sodium butyrate, 4 hours. Here is the method:
To further test the effect of butyrate on muscle, AMPK and PGC-1α were assayed in L6 muscle cells treated with butyrate. Differentiated L6 myotubes were starved in 0.25% BSA DMEM for overnight. The cells were treated with 500 μM of sodium butyrate for 4 hours and analyzed in an immunoblot. […] In the same culture, the PGC-1α protein was increased (FIG. 6A).
Background: In western blotting, separated proteins are transferred to a membrane and probed.

For series [3], the system named is C57BL/6J mice on high fat diet. Nature of the series: Energy metabolism and body composition in diet-induced obesity, butyrate started with HFD. Format: in vivo, mouse. Here is the method:
Male C57BL/6J (4 weeks in age) and ob/ob mice (4 weeks in age) were purchased from the Jackson Laboratory (Bar Harbor, Me.). After one week quarantine, the C57BL/6J mice were fed on the high fat diet (HFD, D12331, Research Diets, New Brunswick, N.J.), which contains 58% calories in fat. The ob/ob mice were fed on Chow diet (5001, Lab Diet) that contains 13.4% calories in fat. All of the mice were housed in the animal facility with a 12:12-h light-dark cycle and constant temperature (22-24° C.). The mice were free to access water and diet. All procedures were performed in accordance with National Institute of Health guidelines for the care and use of animals and approved by the Institute Animal Care and Use Committee at the Pennington Biomedical Research Center.
Sodium butyrate was administrated through dietary supplementation. Sodium butyrate (#303410, Sigma) was incorporated into the HFD evenly through blending the diet and sodium butyrate together at 400 rpm in a food processor. Sodium butyrate (50 g) was used in 1 kg diet to reach a dose of 5% w/w. The sodium butyrate containing diet was pelleted and stored in a −20° C. freezer. Trichostatin A (TSA) (T-1052, A.G. Scientific Inc. San Diego, Calif.) was dissolved in DMSO, and diluted in 0.9% saline at 2:98 ratio. The TSA solution (200 ul) was administrated by intra-peritoneal (i.p.) injection to reach a dose of […]. The control mice were administrated with the same volume of vehicle. 50 ml of tributyrin (#113026, Sigma) was incorporated into one kilogram of Chow diet in powder to reach a dose of 5% w/w in mice.
Body composition was measured using quantitative nuclear magnetic resonance (NMR) as previously described (15). In the test, a conscious and unrestrained mouse was placed in a small tube one at a time and individually tested using a Brucker model mq10 NMR analyzer (Brucker, Canada, Milton ON, Canada). The fat and lean mass were recorded within 1 min. Measurements were made in triplicate for each mouse.
Energy expenditure, respiratory exchange ratio (RER), spontaneous physical movement, and food intake were measured simultaneously for each mouse with the Comprehensive Laboratory Animal Monitoring System (Columbus Instruments, Columbus, Ohio) as described previously (15). The temperature in the metabolic chamber was 24° C. The mice were housed individually in the metabolic chamber. After 48 h of adaptation, the data were recorded for all parameters and used in analysis of the energy metabolism.
Butyrate was initially tested for prevention of dietary obesity. In the diet-induced obesity model, the butyrate supplementation started at the beginning of high fat diet (HFD) feeding. The plain HFD was used in the control group. Calorie intake was monitored four times in the first ten weeks. After normalization with body weight, the calorie intake was reduced with the increase in age.
Energy expenditure was examined in C57BL/6J mice using the metabolic chamber at the first week and the tenth week on HFD (16 weeks in age). In this study, sodium butyrate was used at 5% w/w in HFD. […] Food intake was monitored daily for 5 days at each time point. Average daily food intake (g) was converted into K calorie and normalized with body weight (kg) and 24 hours. […] FIG. 1E illustrates the body weight of the mice over 16 weeks. FIG. 1F illustrates the body fat content as determined by NMR expressed as a percentage of body weight. FIG. 1G illustrates the body muscle content expressed as a percentage of body weight. […] Feces were collected in the cages during a 24 hr period on HFD at 12 weeks, and the total lipids were extracted and quantified (P>0.05, n=5). […] The frequency of horizontal movement was shown for day and night time at 10 wks on HFD. For FIGS. 1A-1D and 1I, the number of mice was 8 in both the control or butyrate groups. For FIGS. 1E-1G, the number of mice was 10 in both the control or butyrate group. Values given in FIGS. 1A-1I are the mean±SE. *P<0.05, **P<0.001 by Student's t test. […]

Where [4] appears, read: butyrate 5% w/w in HFD vs control, metabolic chamber, weeks 1 and 10.
The mark [5] stands for this setting: butyrate 5% w/w in HFD, NMR, change during 16 weeks.

With `CCCC(=O)[O-].[Na+]` [sodium butyrate], the “body temperature (rectal) at 30 minutes in the cold” value in series [1] amounted to 35 °C. In addition, the “body temperature (rectal) for the rest of time in the cold” value in series [1] (up to 90 min) turned out to be 36 °C. For the same molecule, in series [2], the AMPK phosphorylation entry is given as “increased”, the PGC-1α protein result was “increased” and the p38 phosphorylation entry is reported as “increased”. In series [3] (butyrate 5% w/w in HFD), the “toxicity (by food intake and physical activity)” value is reported as “no toxicity was observed”. Also, in series [3] (butyrate 5% w/w in HFD vs HFD control, first ten weeks), the calorie intake result is given as “significantly higher at all of the time points”. Besides, in series [3] (butyrate 5% w/w in HFD vs control), the “body length (mouse growth)” value is on record as “identical between the two groups”. Besides, the spontaneous physical activity result in series [3] (butyrate 5% w/w in HFD vs control, 10 wks on HFD, day and night) is recorded as “not reduced”. Also, in series [3] (setting [4]), the energy expenditure entry is “elevated at the night time” and the oxygen consumption result is recorded as “elevated at the night time”. For the same molecule, the “respiratory exchange ratio (RER)” value in series [3] (butyrate 5% w/w in HFD vs control, weeks 1 and 10) was “reduced during the day and night time”. Moreover, in series [3] (setting [5]), the “fat content (adiposity)” value is on record as “not significantly changed” and the lean mass result is recorded as “not significantly changed”. In addition, the body weight result in series [3] (butyrate 5% w/w in HFD, change during 16 weeks) is recorded as “not significantly changed”. Also, the body fat content in series [3] (butyrate 5% w/w in HFD, without a reduction in food intake) is listed as 10%. For the same molecule, the hepatic steatosis result in series [3] (mice on high fat diet with SB, sixteen weeks) is recorded as “reduced”.
